Some test systems named below: TK-10 renal; HL-60(TB) leukemia; SK-MEL-2 melanoma; HCT-116 colon; UO-31 renal; CCRF-CEM leukemia; UACC-257 melanoma.
What all share (assay): DTP human tumour cell line panel, 48 h

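Step 1: Grow cells in 96-well plates. Step 2: Expose to compound for 48 hours at 5 concentrations. Step 3: Interpolate endpoints linearly; if unreached, use highest concentration. The concentration for 50% growth inhibition is given as GI50. TGI: total growth inhibition.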 Bounds are passed on as bounds.

In the case of `O=C(O)COc1ccc(C(=O)/C(SS/C(C(=O)c2ccc(OCC(=O)O)c(Cl)c2Cl)=C2\C=C(c3ccc(Cl)cc3)SS2)=C2/C=C(c3ccc(Cl)cc3)SS2)c(Cl)c1Cl`, the TGI (as a rule, the concentration giving total growth inhibition) was above 100 µM with TK-10 renal; 2.1 µM in the assay with HL-60(TB) leukemia; 33.7 µM in the assay with SK-MEL-2 melanoma; 22.8 µM in the assay with HCT-116 colon; 16.9 µM with UO-31 renal; 5.85 µM with CCRF-CEM leukemia. The TGI with UACC-257 melanoma is above 100 µM.

In the case of `CCCCNC(=O)C1C(=O)N(CCCC)C(=O)/C1=N\N` (stereo unspecified), the TGI with TK-10 renal, in the assay with SK-MEL-2 melanoma, with HCT-116 colon, in the assay on UO-31 renal and in the assay on UACC-257 melanoma was above 100 µM each time.

For `N#CCCCCCOCCOCCOCCOCCOCCCCCC#N`, the TGI in the assay with TK-10 renal, in the assay on HL-60(TB) leukemia, with SK-MEL-2 melanoma, in the assay on HCT-116 colon, in the assay on UO-31 renal and in the assay with CCRF-CEM leukemia was above 100 µM in each case. Besides, the TGI in the assay with UACC-257 melanoma is above 100 µM.

In the case of `Cc1nn2c(nc1=O)sc1ccc3ccccc3c12`, the TGI with TK-10 renal, in the assay with HL-60(TB) leukemia, in the assay with SK-MEL-2 melanoma, with HCT-116 colon, in the assay on UO-31 renal and in the assay on CCRF-CEM leukemia was above 100 µM in each case. The TGI with UACC-257 melanoma is above 100 µM.

As for `CCOC(=O)C(N=C(c1ccccc1)c1ccccc1)N(C(=O)OC(C)(C)C)C(=O)OC(C)(C)C` (stereo unspecified), the TGI in the assay on TK-10 renal, in the assay on SK-MEL-2 melanoma, in the assay with HCT-116 colon, in the assay with UO-31 renal and in the assay on UACC-257 melanoma was above 100 µM in each case.

Take `COc1cc2c(cc1OC)CC(=O)Nc1cc(OC)c(OC)cc1CC2`: the TGI in the assay on TK-10 renal is above 100 µM; in the assay on HL-60(TB) leukemia it was 64.3 µM; in the assay on SK-MEL-2 melanoma it was above 100 µM; in the assay with HCT-116 colon, above 100 µM; in the assay on UO-31 renal it was above 100 µM; with CCRF-CEM leukemia, above 100 µM. In the assay on UACC-257 melanoma, this compound registered a TGI above 100 µM.

For the compound `CC[C@@]1(O)C(=O)OCc2c1cc1n(c2=O)Cc2cc3cccc([N+](=O)[O-])c3nc2-1`, the GI50 (as a rule, the concentration giving 50% growth inhibition) in the assay on TK-10 renal was 21 µM; with HL-60(TB) leukemia, 0.365 µM; in the assay on SK-MEL-2 melanoma it was 6.11 µM; in the assay with HCT-116 colon, 1.58 µM; with UO-31 renal it was 1.17 µM; with CCRF-CEM leukemia it was 0.0506 µM. In addition, in the assay on UACC-257 melanoma, the GI50 is 2.81 µM. Also, the TGI in the assay on TK-10 renal is above 100 µM; with HL-60(TB) leukemia it was above 100 µM; with SK-MEL-2 melanoma, 24.8 µM; in the assay with HCT-116 colon it was 13.6 µM; with UO-31 renal, 6.91 µM; in the assay with CCRF-CEM leukemia it was 50.4 µM. Also, the TGI in the assay on UACC-257 melanoma amounted to 36.9 µM.

As to `Nc1nc(N)c(-c2ccccc2)c(C(=O)Nc2ccccc2)n1`, the TGI in the assay on TK-10 renal, in the assay on SK-MEL-2 melanoma, in the assay on HCT-116 colon, with UO-31 renal, with CCRF-CEM leukemia and with UACC-257 melanoma was above 100 µM each time.

Take `COc1ccc(NC(=O)CC/C(CC(=O)c2ccco2)=N/NC(N)=S)cc1`: the TGI in the assay on TK-10 renal, in the assay on HL-60(TB) leukemia, with SK-MEL-2 melanoma, with HCT-116 colon, in the assay with UO-31 renal and with CCRF-CEM leukemia was above 100 µM throughout. In the assay with UACC-257 melanoma, the TGI was above 100 µM.

In the case of `O=c1c2ccccc2nc(/C=C(\O)c2ccncc2)n1-c1ccc(Cl)cc1`, the TGI with TK-10 renal, in the assay on HL-60(TB) leukemia, with SK-MEL-2 melanoma, in the assay on HCT-116 colon, in the assay on UO-31 renal and in the assay with CCRF-CEM leukemia was above 100 µM in each case. In addition, in the assay with UACC-257 melanoma, the TGI is above 100 µM.

As for `CCOC(=O)NC/C=C/COC1CCCCO1` (stereo unspecified), the TGI with TK-10 renal, with HL-60(TB) leukemia, in the assay on SK-MEL-2 melanoma, with HCT-116 colon, in the assay with UO-31 renal and with CCRF-CEM leukemia was above 100 µM in each case. Further, the TGI with UACC-257 melanoma was above 100 µM.

Turning to `COC(=O)c1ccccc1N1C(=O)Cc2ccccc2C1=O`, the TGI in the assay with TK-10 renal, in the assay with SK-MEL-2 melanoma, in the assay on UO-31 renal and in the assay with UACC-257 melanoma was above 100 µM throughout.

`O=[N+]([O-])c1cc([N+](=O)[O-])c(/C=C/c2ccc(Cl)c(Cl)c2)cc1/C=C/c1ccc(Cl)c(Cl)c1`: the TGI was above 100 µM with TK-10 renal; 49.2 µM in the assay with HL-60(TB) leukemia; 56.4 µM in the assay on SK-MEL-2 melanoma; 36.1 µM with UO-31 renal; 53.4 µM in the assay on CCRF-CEM leukemia; 51.3 µM in the assay with UACC-257 melanoma.

With `CC1(Br)CC2OC3(Br)C=CC(C)(O)C2(CC1=O)C3(C)C` (stereo unspecified), the TGI in the assay with TK-10 renal was above 100 µM; with SK-MEL-2 melanoma, above 100 µM; with HCT-116 colon, above 100 µM; in the assay with UO-31 renal it was above 100 µM; in the assay with CCRF-CEM leukemia, above 36 µM; in the assay on UACC-257 melanoma, above 100 µM.

On to `CCOC(=O)Cc1csc(Nc2ccc(OCC)cc2)n1`, for which the TGI in the assay with TK-10 renal, with HL-60(TB) leukemia, in the assay with SK-MEL-2 melanoma, with HCT-116 colon, in the assay on UO-31 renal and in the assay with UACC-257 melanoma was above 100 µM each time.
